The target of test [1] is T1, Low molecular weight phosphotyrosine protein phosphatase (Homo sapiens, UniProt P24666).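 Also: Dose-response confirmation assay measuring inhibition of LMPTP enzyme activity by fluorescence intensity read-out.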
T1 sequence (P24666 whole entry): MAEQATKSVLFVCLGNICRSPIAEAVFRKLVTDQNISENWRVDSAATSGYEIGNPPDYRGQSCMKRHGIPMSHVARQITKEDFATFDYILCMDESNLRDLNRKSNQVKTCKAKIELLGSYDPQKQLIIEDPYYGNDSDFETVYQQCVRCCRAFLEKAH
The test is classed as functional. Particulars: read-out: IC50_Mean.

The target in test [2] is T2, Sentrin-specific protease 1 (Homo sapiens, UniProt Q9P0U3).
T2 sequence (Q9P0U3 whole entry): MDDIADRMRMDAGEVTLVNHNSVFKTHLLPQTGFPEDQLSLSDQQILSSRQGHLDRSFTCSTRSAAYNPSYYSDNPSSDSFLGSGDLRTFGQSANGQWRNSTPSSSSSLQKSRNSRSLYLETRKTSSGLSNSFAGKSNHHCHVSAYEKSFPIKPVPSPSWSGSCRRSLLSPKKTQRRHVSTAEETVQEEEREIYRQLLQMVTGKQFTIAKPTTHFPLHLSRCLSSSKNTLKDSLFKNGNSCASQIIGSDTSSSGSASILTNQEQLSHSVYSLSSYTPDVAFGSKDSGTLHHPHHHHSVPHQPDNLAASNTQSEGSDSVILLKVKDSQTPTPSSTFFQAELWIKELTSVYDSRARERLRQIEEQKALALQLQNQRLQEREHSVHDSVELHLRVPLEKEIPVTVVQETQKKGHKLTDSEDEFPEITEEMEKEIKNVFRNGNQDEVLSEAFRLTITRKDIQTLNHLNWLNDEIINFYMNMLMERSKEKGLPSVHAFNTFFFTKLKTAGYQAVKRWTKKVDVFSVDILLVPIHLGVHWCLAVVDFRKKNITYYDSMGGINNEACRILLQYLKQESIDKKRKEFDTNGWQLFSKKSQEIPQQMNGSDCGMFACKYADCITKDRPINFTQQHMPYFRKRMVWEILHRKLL
Description: Dose response confirmation of small molecule inhibitors of the catalytic domain of the SUMO protease, SENP1 in a FRET assay. The test is classed as functional. Particulars: read-out: IC50_Mean.

Test [3] addresses T2, Sentrin-specific protease 1. Put plainly: potency of human SENP1 inhibitors, dose response, biochemical, kinetic FRET (AID 651697). The test is classed as functional. Particulars: read-out: IC50_Mean.
Test [4] has as its target Heat shock protein HSP 90-alpha (Homo sapiens, UniProt P07900). It counts as functional, organism-based.
Test [5] addresses T3, Fructose-bisphosphate aldolase (Mycobacterium tuberculosis, UniProt P9WQA3).
T3 sequence (P9WQA3 whole entry): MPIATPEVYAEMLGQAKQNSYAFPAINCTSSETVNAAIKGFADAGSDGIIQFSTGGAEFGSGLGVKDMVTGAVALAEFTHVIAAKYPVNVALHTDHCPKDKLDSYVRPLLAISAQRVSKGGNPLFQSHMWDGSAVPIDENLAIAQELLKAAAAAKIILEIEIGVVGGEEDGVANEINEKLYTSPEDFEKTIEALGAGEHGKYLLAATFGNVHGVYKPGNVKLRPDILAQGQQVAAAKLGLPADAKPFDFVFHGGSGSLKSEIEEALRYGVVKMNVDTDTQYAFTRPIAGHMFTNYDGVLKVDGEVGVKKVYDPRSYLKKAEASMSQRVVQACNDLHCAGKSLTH
Description: Fluorescence-based biochemical high throughput dose response assay for inhibitors of the fructose-bisphosphate aldolase (FBA) of M. tuberculosis. The test is classed as functional.

The target in test [6] is T4, Adenosylmethionine-8-amino-7-oxononanoate aminotransferase (Mycobacterium tuberculosis, UniProt P9WQ81).
T4 sequence (P9WQ81 whole entry): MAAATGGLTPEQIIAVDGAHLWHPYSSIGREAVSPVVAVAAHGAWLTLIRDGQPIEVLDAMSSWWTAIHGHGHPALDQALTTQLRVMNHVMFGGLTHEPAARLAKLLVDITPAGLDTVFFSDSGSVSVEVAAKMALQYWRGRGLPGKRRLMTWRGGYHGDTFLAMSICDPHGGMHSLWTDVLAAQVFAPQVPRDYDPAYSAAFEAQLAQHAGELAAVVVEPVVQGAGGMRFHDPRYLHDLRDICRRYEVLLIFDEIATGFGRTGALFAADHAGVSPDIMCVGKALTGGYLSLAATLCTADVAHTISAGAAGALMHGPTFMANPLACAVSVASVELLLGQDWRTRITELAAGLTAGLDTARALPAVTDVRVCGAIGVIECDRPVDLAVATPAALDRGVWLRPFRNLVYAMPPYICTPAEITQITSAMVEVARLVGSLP
Put plainly: Mycobacterium tuberculosis BioA enzyme inhibitor Measured in Biochemical System Using Plate Reader - 2163-02_Inhibitor_Dose_CherryPick_Activity. The test is classed as functional, Mycobacterium tuberculosis UT205.

Test [7] concerns the target T5, Mannose-6-phosphate isomerase (Homo sapiens, UniProt P34949).
T5 sequence (P34949 whole entry): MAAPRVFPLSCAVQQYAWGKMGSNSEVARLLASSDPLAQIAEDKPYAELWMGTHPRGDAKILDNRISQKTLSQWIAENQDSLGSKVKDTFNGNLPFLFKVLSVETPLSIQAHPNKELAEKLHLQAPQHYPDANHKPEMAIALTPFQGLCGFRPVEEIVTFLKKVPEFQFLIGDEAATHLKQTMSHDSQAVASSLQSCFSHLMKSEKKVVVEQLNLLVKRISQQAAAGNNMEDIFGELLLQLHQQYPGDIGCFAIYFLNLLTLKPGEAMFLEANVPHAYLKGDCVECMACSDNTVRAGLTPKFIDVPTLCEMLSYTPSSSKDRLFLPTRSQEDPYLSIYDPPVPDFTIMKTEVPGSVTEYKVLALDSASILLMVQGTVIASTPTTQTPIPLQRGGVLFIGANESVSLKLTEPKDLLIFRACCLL
Description: human PMI inhibitors, high substrate, primary screen, biochemical, fluorescence intensity, high mannose 6-phosphate (AID 1220).

For test [8], the target named is T6, Long-chain-fatty-acid--AMP ligase FadD28 (Mycobacterium tuberculosis, UniProt P9WQ59).
T6 sequence (P9WQ59 whole entry): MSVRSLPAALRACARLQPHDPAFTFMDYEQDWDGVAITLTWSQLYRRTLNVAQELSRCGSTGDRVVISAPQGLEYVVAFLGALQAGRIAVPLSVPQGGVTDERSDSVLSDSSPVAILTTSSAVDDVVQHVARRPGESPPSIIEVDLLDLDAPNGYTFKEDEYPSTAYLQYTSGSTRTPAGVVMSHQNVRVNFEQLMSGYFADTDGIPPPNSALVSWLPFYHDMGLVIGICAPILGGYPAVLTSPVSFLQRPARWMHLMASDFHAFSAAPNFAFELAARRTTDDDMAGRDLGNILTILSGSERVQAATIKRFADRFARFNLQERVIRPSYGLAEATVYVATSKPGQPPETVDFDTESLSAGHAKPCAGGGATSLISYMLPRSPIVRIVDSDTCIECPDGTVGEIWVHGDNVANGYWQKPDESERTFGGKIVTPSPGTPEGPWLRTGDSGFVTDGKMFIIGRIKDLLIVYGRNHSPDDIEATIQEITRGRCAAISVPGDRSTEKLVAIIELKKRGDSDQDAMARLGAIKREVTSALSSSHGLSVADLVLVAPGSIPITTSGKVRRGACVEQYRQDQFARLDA
Description: Fluorescence polarization aasay to screen for inhibitors that compete for the binding of FadD28 to a bisubstrate Measured in Biochemical System Using Plate Reader - 2147-01_Inhibitor_Dose_CherryPick_Activity. It counts as functional, Mycobacterium tuberculosis H37Rv. Background: Fluorescence polarisation rises when a labelled molecule tumbles more slowly, as on binding a larger partner.

In a further test the test system is Cryptococcus neoformans. Description: PubChem AID 686997. It counts as functional, organism-based. Particulars: Cryptococcus neoformans.
Test [9] concerns the target T7, DNA repair and recombination protein RAD54-like (Homo sapiens, UniProt Q92698).
T7 sequence (Q92698 whole entry): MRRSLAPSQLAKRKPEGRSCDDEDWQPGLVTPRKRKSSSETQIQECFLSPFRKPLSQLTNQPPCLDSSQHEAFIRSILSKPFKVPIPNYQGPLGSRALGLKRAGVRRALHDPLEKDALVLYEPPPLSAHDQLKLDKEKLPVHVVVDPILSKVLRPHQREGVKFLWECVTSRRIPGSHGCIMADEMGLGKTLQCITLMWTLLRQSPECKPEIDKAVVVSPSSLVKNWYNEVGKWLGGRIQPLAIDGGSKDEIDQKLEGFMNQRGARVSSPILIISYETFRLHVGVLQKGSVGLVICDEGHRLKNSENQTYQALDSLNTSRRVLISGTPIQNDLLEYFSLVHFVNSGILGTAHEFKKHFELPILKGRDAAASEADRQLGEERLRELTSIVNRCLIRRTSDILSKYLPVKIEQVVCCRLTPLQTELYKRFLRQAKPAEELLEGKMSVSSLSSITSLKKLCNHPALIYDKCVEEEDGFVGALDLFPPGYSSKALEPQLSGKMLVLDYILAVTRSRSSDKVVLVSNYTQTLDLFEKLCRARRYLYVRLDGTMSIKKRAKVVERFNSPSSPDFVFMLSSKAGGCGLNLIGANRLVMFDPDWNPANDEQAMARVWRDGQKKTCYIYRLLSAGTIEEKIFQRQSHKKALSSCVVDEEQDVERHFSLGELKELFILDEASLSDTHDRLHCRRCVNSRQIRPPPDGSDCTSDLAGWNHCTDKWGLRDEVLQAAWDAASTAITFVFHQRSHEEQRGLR
Put plainly: inhibitors of human RAD54 branch migration, confirmation, biochemical, fluorescence, cherry-picked samples, dose series (AID 651657). The test is classed as functional.

For test [10], the target named is T8, Corticotropin-releasing factor receptor 2/Corticotropin-releasing factor-binding protein (Homo sapiens, UniProt P24387+Q13324).
T8 sequence (Q13324 whole entry): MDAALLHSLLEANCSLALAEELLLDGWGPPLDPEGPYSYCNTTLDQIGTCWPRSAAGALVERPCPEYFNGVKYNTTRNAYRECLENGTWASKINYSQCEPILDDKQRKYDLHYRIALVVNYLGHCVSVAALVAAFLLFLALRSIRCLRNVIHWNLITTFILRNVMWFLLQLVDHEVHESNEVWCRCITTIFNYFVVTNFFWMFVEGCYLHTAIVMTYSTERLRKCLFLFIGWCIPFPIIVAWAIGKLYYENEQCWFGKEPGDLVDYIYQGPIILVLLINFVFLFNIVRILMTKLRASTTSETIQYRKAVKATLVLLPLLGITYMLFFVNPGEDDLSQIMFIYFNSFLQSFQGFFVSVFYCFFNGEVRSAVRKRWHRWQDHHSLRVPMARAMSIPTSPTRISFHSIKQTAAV
T8 sequence (P24387 whole entry): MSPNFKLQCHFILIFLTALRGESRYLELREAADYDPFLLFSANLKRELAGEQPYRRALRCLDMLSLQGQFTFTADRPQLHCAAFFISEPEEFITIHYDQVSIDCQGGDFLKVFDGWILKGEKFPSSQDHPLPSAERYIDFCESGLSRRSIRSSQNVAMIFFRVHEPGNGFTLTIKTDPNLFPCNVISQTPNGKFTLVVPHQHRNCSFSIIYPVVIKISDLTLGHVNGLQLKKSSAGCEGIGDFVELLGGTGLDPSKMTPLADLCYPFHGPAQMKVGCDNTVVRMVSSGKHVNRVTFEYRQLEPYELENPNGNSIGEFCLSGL
Description: activators of CRF receptor 2 with binding protein – uHTS hits, confirmation (AID 602473). The test is classed as functional. As to conditions: read-out: EC50_Mean.

The target in test [11] is T8, Corticotropin-releasing factor receptor 2/Corticotropin-releasing factor-binding protein. Put plainly: Dose Response confirmation of uHTS hits for small molecule antagonists of the CRF-binding protein and CRF-R2 receptor complex. The test is classed as functional. As to conditions: read-out: IC50_Mean.
A short description of test [12]: CRF-BP/CRF-R2 complex antagonists, dose response, cell-based, uHTS hits, 384-well (AID 651639). Particulars: read-out: IC50_Mean. It counts as functional, Homo sapiens.

Active and inactive are the calls of the source. Where only a bound is given, the exact number is not on record here.

The AC50 is the concentration giving half of the maximal activity seen.

In the case of `O=c1[nH]c2ccccc2n1C1CCN(Cc2ccc(-c3nc4cc5[nH]cnc5cc4nc3-c3ccccc3)cc2)CC1`, the IC50 in test [1] is 7.43 µM (active).
`Oc1ccc(C=NN=C2c3ccccc3-c3ccccc32)c(O)c1`: the IC50 is 6.06 µM (active) in test [2] and 12.5 µM (active) in test [3]. Also, in test [4], the AC50 is 12.1 µM (active).
Regarding `Nc1nnc(/C=C/c2ccccc2Cl)s1`, the IC50 in [5] is 1.59 µM (active).
On to `Cc1ccc(-c2csc3nc(-c4ccncc4)[nH]c(=O)c23)cc1`, for which the IC50 in test [2] was 62 µM (inactive); in test [3], 69.3 µM (inactive).
For `C/C=C/c1ccc2c(c1)O[C@@H](CN(C)C(=O)Nc1ccccc1)[C@H](C)CN([C@H](C)CO)S2(=O)=O`, in test [6], the AC50 was 5.6 µM (active).
In the case of `Oc1ccccc1Oc1c(F)c(F)nc(N2CCCC2)c1F`, the IC50 in test [7] is > 50 µM (not active). Besides, the AC50 in [8] was 42.5 µM (active).
Regarding `Cc1cc(C)c2nc(N3CCN(C(=O)c4cccs4)CC3)sc2c1`, the AC50 with Cryptococcus neoformans is > 70 µM (inactive).
`Oc1nc(N2CCN(Cc3ccc4c(c3)OCO4)CC2)nc2c1CCCC2`: the AC50 in test [6] is 0.921 µM (active).
`CSc1nc(SCC(N)=O)c2c3c(sc2n1)CN(C)CC3`: the AC50 in [9] is 17.2 µM (active).
For the compound `O=c1c2ccccc2nc2sc(Nc3cccc(Cl)c3)nn12`, the IC50 in test [1] was 14.5 µM (active).
Regarding `CN(Cc1ccc([N+](=O)[O-])cc1)c1ccccc1`, in test [10], the EC50 was > 53 µM (inactive). Also, the results for the IC50 in test [11] and in test [12] were 2.92 µM (active) and 7.06 µM (active), respectively. For the same compound, the AC50 in [8] was > 100 µM (inactive).
On to `CCCN(CCC)C(=O)Cn1c(=O)c2sccc2n2c(=S)sc(-c3ccccc3)c12`, for which the IC50 in test [2] was 12.6 µM (active); in test [3] it was 73.8 µM (inactive).
As for `CCOC(=O)c1c(C)n(C)c2ccc(OCC(O)CN3CCN(C)CC3)cc12` (configuration not stated), the AC50 in test [9] was 38.9 µM (active).
Take `Cn1nnc2cc(C(=O)Nc3cccnc3)ccc21`: the AC50 in test [6] was 4.17 µM (active).

These data come from ChEMBL document CHEMBL1201862, “PubChem BioAssay data set” (2004).
